Test results published in US9475773B2, “NK3 receptor antagonist compound (NK3RA) for use in a method for the treatment of polycystic ovary syndrome (PCOS)” (ASTRAZENECA AB, priority 2013, dated 2016).

Target: T1, hrNK3 receptor (Homo sapiens, UniProt P29371)
T1 construct: expressed in transfected cells; host or cells: CHO-K1
T1 sequence (P29371 1-465): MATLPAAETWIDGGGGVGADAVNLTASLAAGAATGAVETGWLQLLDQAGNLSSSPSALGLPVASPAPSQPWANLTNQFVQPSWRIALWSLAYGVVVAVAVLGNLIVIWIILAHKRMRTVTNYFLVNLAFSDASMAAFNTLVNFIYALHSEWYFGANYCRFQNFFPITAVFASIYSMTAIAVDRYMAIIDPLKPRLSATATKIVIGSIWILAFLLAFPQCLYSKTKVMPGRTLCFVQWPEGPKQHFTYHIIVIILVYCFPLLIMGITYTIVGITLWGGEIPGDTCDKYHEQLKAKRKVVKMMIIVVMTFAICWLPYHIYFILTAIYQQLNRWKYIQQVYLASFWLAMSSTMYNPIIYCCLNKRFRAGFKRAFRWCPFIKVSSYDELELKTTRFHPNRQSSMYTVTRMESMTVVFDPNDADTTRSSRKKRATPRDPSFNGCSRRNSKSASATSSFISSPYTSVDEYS
Experiment: Intracellular Calcium Mobilisation Assay (hrNK3 CHO-K1 cells, Senktide, FLIPR)
Format: cell-based
Experimental: The activity of a compound in antagonising the hrNK3 receptor expressed in CHO cells may be measured in the following Intracellular Calcium Mobilisation Assay:
CHO-K1 cells stably transfected with human recombinant Neurokinin-3 receptor (hrNK3 CHO-K1) were cultured in […] tissue culture flasks as monolayers in complete Ham's F-12 media (supplemented with 10% (v/v) FBS, 2 mM L-glutamine and […] Hygromycin B). Cultures are maintained under standard tissue culture conditions. For experiments, PBS was used to wash cells free of culture media and Trypsin was used to detach cells from the flask surface. Cells were counted, pelleted by centrifugation (100 g for 5 min) and resuspended in cell plating medium (UltraCULTURE by BioWhittaker 12-725F containing 200 mM L-Glutamine). […]
Changes in intracellular free calcium were measured fluorometrically by loading hrNK3 CHO-K1 in 384-well plates with the calcium sensitive fluorescent dye, Fluo-4AM as described previously (Xiong et. al., Bioorg. Med. Chem. Lett. 2011, 21, 1896). […]
A test compound was pre-dissolved in DMSO and incubated with cells to a final concentration of 0.1% (v/v) DMSO for 15 minutes. Assays were initiated by the addition of Senktide (purchased from Bachem) and the transient increase in Fluo-4-fluorescence monitored using a FLIPR (Fluorometric Imaging Plate Reader, Molecular Devices, Sunnyvale, U.S.A.).

CC[C@H](NC(=O)c1c(NS(C)(=O)=O)c(-c2ccccc2)nc2ccccc12)c1ccccc1 [NK3RA, 3-(methanesulfonamido)-2-phenyl-N-[(1S)-1-phenylpropyl]quinoline-4-carboxamide]
activity at the hrNK3 receptor expressed in CHO cells: antagonist of the hrNK3 receptor
